Reference: PubChem BioAssay (NCI)
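Where inhibition never reached the appropriate level, the endpoint shown equals the highest concentration tested. Otherwise, values were interpolated linearly from a five-concentration, 48-hour dose response in 96-well plates. The concentration for full growth arrest is given as TGI.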

Key:
Assay in all cases: NCI tumour cell line growth inhibition, 48 h
786-0 renal = test system: 786-0 renal
A498 renal = test system: A498 renal
A549 NSCLC = test system: A549 NSCLC
ACHN renal = test system: ACHN renal
CAKI-1 renal = test system: CAKI-1 renal
CCRF-CEM leukemia = test system: CCRF-CEM leukemia
COLO 205 colon = test system: COLO 205 colon
DLD-1 colon = test system: DLD-1 colon
DMS 114 small cell lung = test system: DMS 114 small cell lung
DMS 273 small cell lung = test system: DMS 273 small cell lung
EKVX NSCLC = test system: EKVX NSCLC
HCT-116 colon = test system: HCT-116 colon
HCT-15 colon = test system: HCT-15 colon
HL-60(TB) leukemia = test system: HL-60(TB) leukemia
HOP-18 NSCLC = test system: HOP-18 NSCLC
HOP-62 NSCLC = test system: HOP-62 NSCLC
HOP-92 NSCLC = test system: HOP-92 NSCLC
HT29 colon = test system: HT29 colon
K-562 leukemia = test system: K-562 leukemia
KM12 colon = test system: KM12 colon
KM20L2 colon = test system: KM20L2 colon
LOX IMVI melanoma = test system: LOX IMVI melanoma
LXFL 529 NSCLC = test system: LXFL 529 NSCLC
M14 melanoma = test system: M14 melanoma
M19-MEL melanoma = test system: M19-MEL melanoma
MALME-3M melanoma = test system: MALME-3M melanoma
MOLT-4 leukemia = test system: MOLT-4 leukemia
NCI-H226 lung = test system: NCI-H226 lung
NCI-H460 lung = test system: NCI-H460 lung
NCI-H522 lung = test system: NCI-H522 lung
OVCAR-3 ovarian = test system: OVCAR-3 ovarian
OVCAR-4 ovarian = test system: OVCAR-4 ovarian
OVCAR-5 ovarian = test system: OVCAR-5 ovarian
OVCAR-8 ovarian = test system: OVCAR-8 ovarian
RPMI-8226 leukemia = test system: RPMI-8226 leukemia
RXF 393 renal = test system: RXF 393 renal
RXF-631 renal = test system: RXF-631 renal
SF-268 CNS = test system: SF-268 CNS
SK-MEL-2 melanoma = test system: SK-MEL-2 melanoma
SK-MEL-28 melanoma = test system: SK-MEL-28 melanoma
SK-MEL-5 melanoma = test system: SK-MEL-5 melanoma
SK-OV-3 ovarian = test system: SK-OV-3 ovarian
SN12C renal = test system: SN12C renal
SNB-19 CNS = test system: SNB-19 CNS
SNB-75 CNS = test system: SNB-75 CNS
SNB-78 CNS = test system: SNB-78 CNS
SR leukemia = test system: SR leukemia
SW-620 colon = test system: SW-620 colon
TK-10 renal = test system: TK-10 renal
U251 CNS = test system: U251 CNS
UACC-257 melanoma = test system: UACC-257 melanoma
UACC-62 melanoma = test system: UACC-62 melanoma
UO-31 renal = test system: UO-31 renal
XF 498 CNS = test system: XF 498 CNS
HCC-2998 colon = test system: HCC-2998 colon
IGROV1 ovarian = test system: IGROV1 ovarian
MCF7 breast = test system: MCF7 breast
NCI-H23 lung = test system: NCI-H23 lung
NCI/ADR-RES ovarian = test system: NCI/ADR-RES ovarian
P388 leukemia = test system: P388 leukemia
P388/ADR leukemia = test system: P388/ADR leukemia
SF-295 CNS = test system: SF-295 CNS
SF-539 CNS = test system: SF-539 CNS
SN12K1 renal = test system: SN12K1 renal

In the case of `CC(=O)OCC1OC(n2cccnc2=O)C(OC(C)=O)C1OC(C)=O` (stereo unspecified), the TGI (786-0 renal) is reported as > 100 µM, the TGI (A498 renal) is reported as > 100 µM and the TGI (A549 NSCLC) is reported as > 100 µM. The TGI (ACHN renal) was > 100 µM, the TGI (CAKI-1 renal) was > 100 µM and the TGI (CCRF-CEM leukemia) was > 100 µM. For the same molecule, the TGI (COLO 205 colon) was > 100 µM, the TGI (DLD-1 colon) was > 100 µM and the TGI (DMS 114 small cell lung) was > 100 µM. For the same molecule, the TGI (DMS 273 small cell lung) was > 100 µM, the TGI (EKVX NSCLC) was > 100 µM and the TGI (HCT-116 colon) was > 100 µM. For the same molecule, the TGI (HCT-15 colon) was > 100 µM, the TGI (HL-60(TB) leukemia) was > 100 µM and the TGI (HOP-18 NSCLC) was > 100 µM. The TGI (HOP-62 NSCLC) was > 100 µM, the TGI (HOP-92 NSCLC) was > 100 µM and the TGI (HT29 colon) was > 100 µM. For the same molecule, the TGI (K-562 leukemia) was > 100 µM, the TGI (KM12 colon) was > 100 µM and the TGI (KM20L2 colon) was > 100 µM. The TGI (LOX IMVI melanoma) was > 100 µM, the TGI (LXFL 529 NSCLC) was > 100 µM and the TGI (M14 melanoma) was > 100 µM. For the same molecule, the TGI (M19-MEL melanoma) was > 100 µM, the TGI (MALME-3M melanoma) was > 100 µM and the TGI (MOLT-4 leukemia) was > 100 µM. The TGI (NCI-H226 lung) was > 100 µM, the TGI (NCI-H460 lung) was > 100 µM and the TGI (NCI-H522 lung) was > 100 µM. For the same molecule, the TGI (OVCAR-3 ovarian) was > 100 µM, the TGI (OVCAR-4 ovarian) was > 100 µM and the TGI (OVCAR-5 ovarian) was > 100 µM. The TGI (OVCAR-8 ovarian) was > 100 µM, the TGI (RPMI-8226 leukemia) was > 100 µM and the TGI (RXF 393 renal) was > 100 µM. For the same molecule, the TGI (RXF-631 renal) was > 100 µM, the TGI (SF-268 CNS) was > 100 µM and the TGI (SK-MEL-2 melanoma) was > 100 µM. The TGI (SK-MEL-28 melanoma) was > 100 µM, the TGI (SK-MEL-5 melanoma) was > 100 µM and the TGI (SK-OV-3 ovarian) was > 100 µM. The TGI (SN12C renal) was > 100 µM, the TGI (SNB-19 CNS) was > 100 µM and the TGI (SNB-75 CNS) was > 100 µM. The TGI (SNB-78 CNS) was > 100 µM, the TGI (SR leukemia) was > 100 µM and the TGI (SW-620 colon) was > 100 µM. For the same molecule, the TGI (TK-10 renal) was > 100 µM, the TGI (U251 CNS) was > 100 µM and the TGI (UACC-257 melanoma) was > 100 µM. For the same molecule, the TGI (UACC-62 melanoma) was > 100 µM, the TGI (UO-31 renal) was > 100 µM and the TGI (XF 498 CNS) was > 100 µM.
With `O=C(O)CCC(NC(=O)c1ccc(Nc2cnc3cc(C(F)(F)F)ccc3n2)cc1)C(=O)O` (stereo unspecified) the TGI (A498 renal) was > 100 µM, the TGI (A549 NSCLC) was > 100 µM and the TGI (CCRF-CEM leukemia) was > 100 µM. The TGI (COLO 205 colon) was > 100 µM, the TGI (DLD-1 colon) was > 100 µM and the TGI (DMS 114 small cell lung) was > 100 µM. The TGI (DMS 273 small cell lung) was > 100 µM, the TGI (EKVX NSCLC) was > 100 µM and the TGI (HCC-2998 colon) was > 100 µM. For the same molecule, the TGI (HCT-116 colon) was > 100 µM, the TGI (HCT-15 colon) was > 100 µM and the TGI (HL-60(TB) leukemia) was > 100 µM. The TGI (HOP-18 NSCLC) was > 100 µM, the TGI (HOP-62 NSCLC) was > 100 µM and the TGI (HOP-92 NSCLC) was > 100 µM. The TGI (HT29 colon) was > 100 µM, the TGI (IGROV1 ovarian) was > 100 µM and the TGI (K-562 leukemia) was > 100 µM. The TGI (KM12 colon) was > 100 µM, the TGI (KM20L2 colon) was > 100 µM and the TGI (LOX IMVI melanoma) was > 100 µM. The TGI (MALME-3M melanoma) was > 100 µM, the TGI (MCF7 breast) was > 100 µM and the TGI (MOLT-4 leukemia) was > 100 µM. For the same molecule, the TGI (NCI-H226 lung) was > 100 µM, the TGI (NCI-H23 lung) was > 100 µM and the TGI (NCI-H460 lung) was > 100 µM. For the same molecule, the TGI (NCI-H522 lung) was > 100 µM, the TGI (NCI/ADR-RES ovarian) was > 100 µM and the TGI (OVCAR-3 ovarian) was > 100 µM. The TGI (OVCAR-4 ovarian) was > 100 µM, the TGI (OVCAR-5 ovarian) was > 100 µM and the TGI (OVCAR-8 ovarian) was > 100 µM. The TGI (P388 leukemia) was > 100 µM, the TGI (P388/ADR leukemia) was > 100 µM and the TGI (RPMI-8226 leukemia) was > 100 µM. For the same molecule, the TGI (RXF 393 renal) was > 100 µM, the TGI (SF-268 CNS) was > 100 µM and the TGI (SF-295 CNS) was > 100 µM. The TGI (SF-539 CNS) was > 100 µM, the TGI (SK-MEL-2 melanoma) was > 100 µM and the TGI (SK-MEL-28 melanoma) was > 100 µM. The TGI (SK-MEL-5 melanoma) was > 100 µM, the TGI (SK-OV-3 ovarian) was > 100 µM and the TGI (SN12C renal) was > 100 µM. For the same molecule, the TGI (SN12K1 renal) was > 100 µM, the TGI (SNB-19 CNS) was > 100 µM and the TGI (SNB-75 CNS) was > 100 µM. For the same molecule, the TGI (SNB-78 CNS) was > 100 µM, the TGI (SW-620 colon) was > 100 µM and the TGI (U251 CNS) was > 100 µM. The TGI (UACC-257 melanoma) was > 100 µM, the TGI (UACC-62 melanoma) was > 100 µM and the TGI (UO-31 renal) was > 100 µM. The TGI (XF 498 CNS) was > 100 µM.
In the case of `O=C(NN1C(=O)CS(=O)(=O)C1c1ccc(Cl)c(Cl)c1)c1ccncc1` (stereo unspecified), the TGI (A498 renal) is reported as > 100 µM, the TGI (A549 NSCLC) is reported as > 100 µM and the TGI (CAKI-1 renal) is reported as > 100 µM. The TGI (CCRF-CEM leukemia) was > 86.1 µM, the TGI (COLO 205 colon) was > 100 µM and the TGI (DLD-1 colon) was > 100 µM. For the same molecule, the TGI (DMS 114 small cell lung) was > 100 µM, the TGI (DMS 273 small cell lung) was > 31.6 µM and the TGI (EKVX NSCLC) was > 100 µM. The TGI (HCC-2998 colon) was > 100 µM, the TGI (HCT-116 colon) was > 100 µM and the TGI (HCT-15 colon) was > 100 µM. The TGI (HL-60(TB) leukemia) was > 90.4 µM, the TGI (HOP-18 NSCLC) was > 100 µM and the TGI (HOP-62 NSCLC) was > 100 µM. The TGI (HOP-92 NSCLC) was > 100 µM, the TGI (HT29 colon) was > 100 µM and the TGI (IGROV1 ovarian) was > 100 µM. For the same molecule, the TGI (K-562 leukemia) was > 100 µM, the TGI (KM12 colon) was > 100 µM and the TGI (KM20L2 colon) was > 100 µM. The TGI (LOX IMVI melanoma) was > 100 µM, the TGI (M19-MEL melanoma) was > 100 µM and the TGI (MALME-3M melanoma) was > 100 µM. For the same molecule, the TGI (MCF7 breast) was > 100 µM, the TGI (MOLT-4 leukemia) was > 71.8 µM and the TGI (NCI-H226 lung) was > 100 µM. The TGI (NCI-H23 lung) was > 100 µM, the TGI (NCI-H460 lung) was > 100 µM and the TGI (NCI-H522 lung) was > 100 µM. The TGI (NCI/ADR-RES ovarian) was > 100 µM, the TGI (OVCAR-3 ovarian) was > 100 µM and the TGI (OVCAR-4 ovarian) was > 100 µM. For the same molecule, the TGI (OVCAR-5 ovarian) was > 100 µM, the TGI (OVCAR-8 ovarian) was > 100 µM and the TGI (P388 leukemia) was > 60.1 µM. For the same molecule, the TGI (P388/ADR leukemia) was > 74.8 µM, the TGI (RPMI-8226 leukemia) was > 71.5 µM and the TGI (RXF 393 renal) was > 100 µM. The TGI (SF-268 CNS) was > 100 µM, the TGI (SF-295 CNS) was > 100 µM and the TGI (SF-539 CNS) was > 100 µM. The TGI (SK-MEL-2 melanoma) was > 100 µM, the TGI (SK-MEL-28 melanoma) was > 100 µM and the TGI (SK-MEL-5 melanoma) was > 100 µM. The TGI (SK-OV-3 ovarian) was > 100 µM, the TGI (SN12C renal) was > 100 µM and the TGI (SN12K1 renal) was > 100 µM. For the same molecule, the TGI (SNB-19 CNS) was > 100 µM, the TGI (SNB-75 CNS) was > 100 µM and the TGI (SNB-78 CNS) was > 100 µM. The TGI (SW-620 colon) was > 100 µM, the TGI (U251 CNS) was > 100 µM and the TGI (UACC-257 melanoma) was > 100 µM. For the same molecule, the TGI (UACC-62 melanoma) was > 100 µM, the TGI (UO-31 renal) was > 100 µM and the TGI (XF 498 CNS) was > 100 µM.
